# Reference: patent US10633407B2, “14-membered ketolides and methods of their preparation and use” (President and Fellows of Harvard College, priority 2014, dated 2020)
# Key:
# Assay in all cases: CLSI broth dilution MIC determination
# Type in all cases: cell-based
# [1] = system: S. pyogenes ATCC 19615; conditions: Streptococcus pyogenes, ATCC19615, S. pyogenes ATCC 19615 (MP-19); read-out: MIC
# [2] = system: E. faecalis ATCC 29212; conditions: Enterococcus faecalis, ATCC29212, E. faecalis ATCC 29212 (MP-24); read-out: MIC
# [3] = system: S. aureus MRSA: USA100; conditions: Staphylococcus aureus; S. aureus MRSA: USA100 (MP-618 UNT-096); read-out: MIC
# Summary of the method: (§1)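 CLSI broth-dilution MIC. Controls: azithromycin, solithromycin (many cases). Macrolide-resistance genotypes constitutive or inducible.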
# [4] = system: S. aureus MRSA: USA300; conditions: Staphylococcus aureus; S. aureus MRSA: USA300 (MP-549, msr(a)); read-out: MIC
# Summary of the method: as §1
# [5] = system: E. coli MP-541 clinical; conditions: Escherichia coli, MP541CLINICAL, read-out: MIC
# Summary of the method: as §1
# [6] = system: S. aureus (MRSA) MP-513 ST-228 cErm (Clinical-cErm); conditions: Staphylococcus aureus, read-out: MIC
# Summary of the method: as §1
# [7] = system: S. pneumoniae mef A genotype (first strain so labelled); conditions: Streptococcus pneumoniae, first strain (MP-626 UNT-038)
# Summary of the method: as §1
# [8] = system: S. pneumoniae ATCC 49619; conditions: Streptococcus pneumoniae, ATCC49619, S. pneumoniae ATCC 49619 (MP-21); read-out: MIC
# Summary of the method: as §1
# [9] = system: S. pneumoniae mef A genotype (second strain so labelled); conditions: Streptococcus pneumoniae, second strain (MP-627 UNT-039), read-out: MIC
# Summary of the method: as §1
# [10] = system: S. aureus MP-17 ATCCBAA-977 (BAA 977 iErm); conditions: Staphylococcus aureus; S. aureus MP-17, ATCCBAA-977, iErm; read-out: MIC
# Summary of the method: as §1
# [11] = system: E. coli MP-9 ATCC25922:tolC; conditions: Escherichia coli, ATCC25922
# Summary of the method: as §1
# [12] = system: S. aureus USA600, GISA; conditions: Staphylococcus aureus; S. aureus USA600, GISA (MP-619 UNT-120); read-out: MIC
# Summary of the method: as §1
# [13] = system: S. aureus ATCC 29213; conditions: Staphylococcus aureus, ATCC29213; S. aureus ATCC 29213 (MP-12); read-out: MIC
# Summary of the method: as §1
# [14] = system: S. aureus erm A genotype; conditions: Staphylococcus aureus; S. aureus erm A genotype (MP-620 UNT-146); read-out: MIC
# Summary of the method: as §1
# [15] = system: E. coli ATCC 25922; conditions: Escherichia coli, ATCC25922, E. coli ATCC 25922 (MP-4); read-out: MIC
# Summary of the method: as §1
# [16] = system: E. coli MP-532 clinical-cErmB; conditions: Escherichia coli
# Summary of the method: as §1
# [17] = system: P. aeruginosa MP-8 PAO1:mex (mex-oprM-deletion); conditions: Pseudomonas aeruginosa, PAO1
# [18] = system: A. baumannii MP-577 Clinical-AZT low; conditions: Acinetobacter baumannii, read-out: MIC
# [19] = system: P. aeruginosa MP-7 PAO1; conditions: Pseudomonas aeruginosa, read-out: MIC
# [20] = system: K. pneumoniae ATCC 10031; conditions: Klebsiella pneumoniae, ATCC10031, K. pneumoniae ATCC 10031 (MP-14); read-out: MIC
# [21] = system: A. baumannii ATCC 19606; conditions: Acinetobacter baumannii, ATCC19606; A. baumannii ATCC 19606 (MP-15); read-out: MIC
# [22] = system: E. faecalis Vancomycin-resistant; conditions: Enterococcus faecalis, E. faecalis Vancomycin-resistant (UNT-039); read-out: MIC
# [23] = system: S. pyogenes Macrolide-resistant; conditions: Streptococcus pyogenes, S. pyogenes Macrolide-resistant (MP-625 UNT-014); read-out: MIC
# [24] = system: A. baumannii MP-576 Clinical-MDR; conditions: Acinetobacter baumannii, read-out: MIC
# [25] = system: K. pneumoniae MP-548 clinical; conditions: Klebsiella pneumoniae, MP548CLINICAL, read-out: MIC
# [26] = system: P. aeruginosa ATCC 27853; conditions: Pseudomonas aeruginosa, ATCC27853; P. aeruginosa ATCC 27853 (MP-3); read-out: MIC
# [27] = system: K. pneumoniae MP-546 Clinical-MDR; conditions: Klebsiella pneumoniae, read-out: MIC
SMILES,MIC [1] [µg/mL],MIC [2] [µg/mL],MIC [3] [µg/mL],MIC [4] [µg/mL],MIC [5] [µg/mL],MIC [6] [µg/mL],MIC [7] [µg/mL],MIC [8] [µg/mL],MIC [9] [µg/mL],MIC [10] [µg/mL],MIC [11] [µg/mL],MIC [12] [µg/mL],MIC [13] [µg/mL],MIC [14] [µg/mL],MIC [15] [µg/mL],MIC [16] [µg/mL],MIC [17] [µg/mL],MIC [18] [µg/mL],MIC [19] [µg/mL],MIC [20] [µg/mL],other results
CC[C@H]1OC(=O)[C@H](C)C(=O)[C@H](C)[C@@H](O[C@@H]2OC(C)CC(N(C)C)C2O)[C@](C)(OC)C[C@@H](C)C(=O)[C@H](C)[C@H]2N(CC#CCn3cc(-c4cccc(N)n4)nn3)C(=O)O[C@]12C (stereo partly drawn) [FSM-100551],< 0.03,< 0.03,> 64,0.125,16,> 64,< 0.03,< 0.03,< 0.03,0.06,2,64,0.06,> 64,8,> 64,4,16,32,8,MIC [21]: 4 µg/mL; MIC [22]: 4 µg/mL; MIC [23]: 0.06 µg/mL; MIC [24]: > 64 µg/mL; MIC [25]: 32 µg/mL; MIC [26]: 16 µg/mL; MIC [27]: > 64 µg/mL
CC[C@H]1OC(=O)[C@@](C)(F)C(=O)[C@H](C)[C@@H](O[C@@H]2OC(C)CC(N(C)C)C2O)[C@](C)(OC)C[C@@H](C)C(=O)[C@H](C)[C@H]2N(CC#CCn3cc(-c4cc(F)ccn4)nn3)C(=O)O[C@]12C (stereo partly drawn) [FSM-100563],< 0.03,< 0.03,32,0.125,16,16,< 0.03,< 0.03,< 0.03,0.06,2,16,0.06,16,16,> 64,8,32,64,8,MIC [21]: 8 µg/mL; MIC [22]: 2 µg/mL; MIC [23]: < 0.03 µg/mL; MIC [24]: > 64 µg/mL; MIC [25]: 64 µg/mL; MIC [26]: 32 µg/mL; MIC [27]: > 64 µg/mL
